Measured values reported in paper PMC6476926, “Dichloro-Phenyl-Benzotriazoles: A New Selective Class of Human Respiratory Syncytial Virus Entry Inhibitors” (Frontiers in Chemistry, 2019).
“Also recorded” adds a separate entry of the source.

Key:
[1] = test system: RSV; test: microbe, parasite or virus in culture; format: cell-based, Human Respiratory Syncytial Virus (RSV) strain A2; conditions: human respiratory syncytial virus, Vero 76, read-out: EC50 RSV
[2] = test system: HIV-1IIIB; test: microbe, parasite or virus in culture; format: cell-based, Human Immunodeficiency Virus type-1 (HIV-1); conditions: Human immunodeficiency virus 1, MT4, read-out: EC50 HIV-1IIIB
[3] = test system: BVDV; test: microbe, parasite or virus in culture; format: cell-based; conditions: Bovine viral diarrhea virus isolates and strains, MDBK, read-out: EC50 BVDV
[4] = test system: YFV; test: microbe, parasite or virus in culture; format: cell-based; conditions: Yellow fever virus, BHK, read-out: EC50 YFV
[5] = test system: Reo-1; test: microbe, parasite or virus in culture; format: cell-based, Reovirus type-1 (Reo-1); conditions: Reovirus sp., BHK, read-out: EC50 Reo-1
[6] = test system: CV-B5; test: microbe, parasite or virus in culture; format: cell-based, Human Enterovirus B [coxsackie type B5 (CV-B5)]; conditions: Enterovirus B, CVB5, Vero 76, read-out: EC50 CV-B5
[7] = test system: Sb-1, VSV, VV, HSV-1; test: organism not typed; format: cell-based; conditions: Vero 76, read-out: EC50 Sb-1, VSV, VV, HSV-1
[8] = test system: RSV strain B1 cp-52; test: microbe, parasite or virus in culture; format: cell-based; conditions: human respiratory syncytial virus, Vero 76, read-out: 50% inhibitory concentration RSV cp-52
[9] = in vitro; conditions: cattle (Bos taurus)
[10] = Cytotoxicity, MTT method, BHK cells; conditions: Syrian hamster (Mesocricetus auratus)
[11] = Cytotoxicity, MTT method, MT-4 cells; conditions: human
[12] = Cytotoxicity, MTT method, Vero-76 cells; conditions: African green monkey (Cercopithecus aethiops)
[13] = test system: RSV A2; test: Immunofluorescence attachment assay; format: cell-based, Human Respiratory Syncytial Virus (RSV); conditions: 4°C, Vero-76; 20 μM 10d, 6 μg/mL dextran sulfate, 5 μM 6-azauridine
Procedure: Compounds' inhibitory effects on virus-cell binding event was measured by immunofluorescence performed according to the method described previously with some modifications (Maric et al., [2011]). […] After this incubation period, the monolayers were washed three times in cold PBS in order to remove unbound viral particles and then were fixed in paraformaldehyde 4%. The presence of bound virus was detected by indirect immunofluorescence. […] Abcam, Cambridge, United Kingdom). Cells were then washed three times in PBS-Tween-100 and incubated with a 1:500 dilution of an Alexa Fluor 488-labeled anti-mouse secondary antibody (Molecular Probes, Eugene, Oreg.). After a series of washes in PBS-Tween-100, cells were mounted with Vectashield (Vector Laboratories, Burlingame, CA) containing 4′,6-diamidino-2-phenylindole (DAPI) and images of each well were captured with the ZOE Fluorescent Cell Imager (Biorad).

Row | Molecule | EC50 [1] | EC50 [2] | EC50 [3] | EC50 [4] | EC50 [5] | EC50 [6] | EC50 [7] | IC50 [8] | melting point | CC50 [9] | CC50 [10] | CC50 [11] | CC50 at 5 days [12] | inhibition of viral attachment [13]
1 | CCCNC(=O)Nc1ccc(-n2nc3cc(Cl)c(Cl)cc3n2)cc1 [10b, 1-[4-(5,6-dichloro-2H-benzo[d][1,2,3]triazol-2-yl)phenyl]-3-propylurea] | 3 µM | > 100 µM | > 78 µM | > 40 µM | > 40 µM | > 30 µM | > 30 µM | 7 ± 1 µM | > 300 °C | 78 µM | 40 µM | > 100 µM | 30 µM | 
2 | COc1cc(C(=O)Nc2ccc(-n3nc4cc(Cl)c(Cl)cc4n3)cc2)cc(OC)c1OC [8d, N-[4-(5,6-dichloro-2H-benzo[d][1,2,3]triazol-2-yl)phenyl]-3,4,5-trimethoxybenzamide] | 3 µM | > 63 µM | 35 µM | > 35 µM | > 35 µM | > 80 µM | > 80 µM | 10 ± 2 µM | 199 to 201 °C | > 100 µM | 35 µM | 63 µM | 80 µM | 
3 | dextran sulfate [reference compound] |  |  |  |  |  |  |  |  |  |  |  |  |  | inhibits viral attachment; also recorded: efficiently blocked viral attachment
4 | O=c1cnn([C@@H]2O[C@H](CO)[C@@H](O)[C@H]2O)c(=O)[nH]1 [6-azauridine, reference compound] | 1.4 µM |  |  |  |  |  |  |  |  |  |  |  | ≥ 14 µM | not able to block viral binding
5 | N#Cc1ccc(C(=O)Nc2ccc(-n3nc4cc(Cl)c(Cl)cc4n3)cc2)cc1 [8h, N-[4-(5,6-dichloro-2H-benzo[d][1,2,3]triazol-2-yl)phenyl] 4-cyanobenzamide] | 60 µM | > 100 µM | 11 µM | > 100 µM | > 100 µM | > 100 µM | > 100 µM |  | 263 to 265 °C | > 100 µM | > 100 µM | > 100 µM | > 100 µM | 
6 | O=C(Nc1ccc(-n2nnc3cc(Cl)c(Cl)cc32)cc1)c1ccc([N+](=O)[O-])cc1 [7e, N-[4-(5,6-dichloro-1H-benzo[d][1,2,3]triazol-1-yl)phenyl]-4-nitrobenzamide] | 13 µM | > 100 µM | > 100 µM | > 96 µM | > 96 µM | > 100 µM | > 100 µM |  | 238 to 240 °C | > 100 µM | 96 µM | > 100 µM | > 100 µM | 
7 | CCC(=O)Nc1ccc(-n2nnc3cc(Cl)c(Cl)cc32)cc1 [5b, N-[4-(5,6-dichloro-1H-benzo[d][1,2,3]triazol-1-yl)phenyl]propionamide] | 4 µM | > 28 µM | > 100 µM | > 54 µM | > 54 µM | > 30 µM | > 30 µM |  | 175 to 177 °C | > 100 µM | 54 µM | 28 µM | 30 µM | 
8 | O=C(Nc1ccc(-n2nc3cc(Cl)c(Cl)cc3n2)cc1)c1ccc(C(F)(F)F)cc1 [8g, N-[4-(5,6-dichloro-2H-benzo[d][1,2,3]triazol-2-yl)phenyl]-4-(trifluoromethyl)benzamide] | 50 µM | > 100 µM | 28 µM | > 100 µM | > 100 µM | > 100 µM | > 100 µM |  | 210 to 212 °C | > 100 µM | > 100 µM | > 100 µM | > 100 µM | 
9 | CCC(=O)N(C(=O)CC)c1ccc(-n2nc3cc(Cl)c(Cl)cc3n2)cc1 [6e, N-propionyl-N-[4-(5,6-dichloro-2H-benzo[d][1,2,3]triazol-2-yl)phenyl] propionamide] | 6 µM | > 15 µM | > 72 µM | > 26 µM | > 26 µM | 61 µM | > 100 µM |  | 238 to 240 °C | 72 µM | 26 µM | 15 µM | > 100 µM | 
